System: TNF-α
Test: Cytokine ELISA, LPS-stimulated peritoneal macrophages (TNF-α)
Type: cell-based, mouse
Conditions: LPS-stimulated macrophages, mouse model of type 2 diabetes
Source text: This was exemplified in the current study by the ability of SFN-CYS to inhibit lipopolysaccharide (LPS)-induced peritoneal macrophages and bone marrow-derived macrophages to produce tumor necrosis factor-α (TNF-α) and interlukin-6 (IL-6). TNF-α and IL-6 are two of the major inflammatory mediators that contribute to the pathogenesis of low-grade inflammation; a phenomenon which is commonly associated with the diabetic state. […] Pre-treatment with SFN-Cys inhibited the expression of LPS-induced TNF-α and IL-6 protein at a therapeutic dose of 1.5 μM (FIGS. 1A and 1B).
Thioglycollate-elicited mouse peritoneal macrophages were prepared from C57BL (8-10 weeks old) and cultured in RPMI 1640 with 10% (v/v) FCS Bone marrow-derived macrophages were generated in RPMI medium containing M-CSF (10 ng/mL) according to previously published procedure. For cytokine ELISA assay, cells were seeded at 5×10^5 in 12-well plates, whereas for mRNA expression, the cells were seeded at […]. LPS and used at a dose of 100 ng/mL. Similarly. SFN-Cys was used at a concentration of 1.5 umol/L.
For cytokine ELISA, supernatants from cultured macrophages were collected in response to treatment with SFN and SFN-Cys for 6 h. The total TNF-α and TL-6 were measured by enzyme-linked immunosorbent assay (ELISA) using kits (R&D system, USA) according to the manufacturer's protocols.

Structure (SMILES): C[S+]([O-])CCCCN=C=S (stereo not shown) [SFN, Sulforaphane]
- anti-inflammatory activity (overall, SFN-Cys compared with SFN): exhibited anti-inflammatory and antioxidant activities
